What was measured:
c-Src kinase = molecular target: T1, c-Src kinase (Homo sapiens, UniProt P12931); assay: c-Src Kinase Assay; format: biochemical; details: 5 μM ATP
T1 construct: purchased Upstate Biotechnology, Lake Placid, N.Y
Method in brief: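 Human c-Src phosphorylated Cdc2 peptide (100 μM) […]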

A375 malignant melanoma = assay: Cell Proliferation Inhibition Assay (14C-thymidine incorporation), A375; format: cell-based; details: Homo sapiens, A-375, A375 cells;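 note: proliferation measured by radiolabelled thymidine uptake into new DNA, counted in scintillating 96-well plates, compound-treated wells compared with DMSO-only control wells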
Aurora-A = molecular target: T2, Aurora-A (Mus musculus, UniProt P97477); assay: Aurora-A kinase screening assay (33P-ATP FlashPlate); format: biochemical; details: 10 μM ATP, 1 hr at 30° C;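 note: His-tagged mouse Aurora-A phosphorylating a biotinylated peptide captured on streptavidin plates, read as 33P uptake by scintillation counting, 1% DMSO, inhibition scaled between per-plate maximum and minimum signals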
T2 construct: polyhistidine (N)
T2 sequence (P97477 1-395): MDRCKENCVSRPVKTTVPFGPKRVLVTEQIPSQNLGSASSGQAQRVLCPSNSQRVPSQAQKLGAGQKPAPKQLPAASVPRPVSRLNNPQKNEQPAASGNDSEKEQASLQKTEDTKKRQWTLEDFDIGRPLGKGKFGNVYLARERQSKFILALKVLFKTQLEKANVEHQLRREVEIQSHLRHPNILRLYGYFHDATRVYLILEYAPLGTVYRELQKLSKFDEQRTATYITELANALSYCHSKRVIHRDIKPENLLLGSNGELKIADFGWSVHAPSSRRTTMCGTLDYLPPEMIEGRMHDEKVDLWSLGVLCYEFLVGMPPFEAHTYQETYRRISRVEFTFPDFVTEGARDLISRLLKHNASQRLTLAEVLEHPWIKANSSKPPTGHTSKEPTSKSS

CDK1 = molecular target: T3, CDK1 (Homo sapiens, UniProt P06493); assay: CDK-1 kinase screening assay (33P-ATP FlashPlate); format: biochemical; details: human CDK1 with cyclin B; 10 μM ATP; 1 hr at 30° C
T3 construct: purchased New England Biolabs, Beverly, Mass; 6020; host or cells: insect cells

[1] = test system: Human melanoma A375 cells; assay: In Vivo Models - Inhibition of Tumor Growth (A375 xenograft); details: female athymic mice, 25 mg/kg i.p. daily
Description: The ability of test compounds to inhibit unregulated growth of human tumor cells in vivo was evaluated by implanting human tumor cells into the hindflank of athymic mice, administering a test compound and then quantifying any change in tumor size.
Certain compounds at particular doses produced adverse effects in this model. One skilled in the art would be able to establish the effective amount of compound required to achieve an effective therapeutic window.
Human melanoma A375 cells were implanted subcutaneously into the hindflank of female athymic mice (Charles River) and allowed to grow for 6-10 days. After a measurable tumor was established (as determined by baseline caliper measurement), the animal was administered an intraperitoneal (i.p.) dose of the test compound daily at 25 mg/kg for the length of the study. Tumor size was measured at certain intervals as shown in Table 5 and the degree of inhibition for a test compound was determined by comparing the reduction in tumor volume for drug-treated animals to that of untreated and vehicle-treated animals. The vehicle used was 20% hydroxypropyl β-cyclodextran.

HCT-116 colon carcinoma = assay: Cell Proliferation Inhibition Assay (14C-thymidine incorporation), HCT-116; format: cell-based; details: Homo sapiens, HCT-116, HCT-116 cells;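 note: proliferation measured as methyl 14C-thymidine uptake into new DNA, counted in 96-well scintillating microplates, compared with DMSO-only control wells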

T1 sequence (P12931 whole entry): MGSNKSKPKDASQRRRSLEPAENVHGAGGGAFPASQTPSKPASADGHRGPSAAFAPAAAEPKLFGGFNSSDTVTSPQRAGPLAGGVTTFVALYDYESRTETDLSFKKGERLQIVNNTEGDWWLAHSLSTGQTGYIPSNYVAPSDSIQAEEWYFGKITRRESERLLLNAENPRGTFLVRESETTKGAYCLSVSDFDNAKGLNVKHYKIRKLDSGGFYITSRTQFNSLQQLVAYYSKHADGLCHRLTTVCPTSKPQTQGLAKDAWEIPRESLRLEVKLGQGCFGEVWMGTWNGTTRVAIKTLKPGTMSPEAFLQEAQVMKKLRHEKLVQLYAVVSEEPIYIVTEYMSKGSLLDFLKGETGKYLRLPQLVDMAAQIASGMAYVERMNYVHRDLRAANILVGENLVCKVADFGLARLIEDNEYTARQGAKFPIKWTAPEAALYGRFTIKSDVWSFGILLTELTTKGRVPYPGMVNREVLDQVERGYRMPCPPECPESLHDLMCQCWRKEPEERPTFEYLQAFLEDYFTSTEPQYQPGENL
T3 sequence (P06493 whole entry): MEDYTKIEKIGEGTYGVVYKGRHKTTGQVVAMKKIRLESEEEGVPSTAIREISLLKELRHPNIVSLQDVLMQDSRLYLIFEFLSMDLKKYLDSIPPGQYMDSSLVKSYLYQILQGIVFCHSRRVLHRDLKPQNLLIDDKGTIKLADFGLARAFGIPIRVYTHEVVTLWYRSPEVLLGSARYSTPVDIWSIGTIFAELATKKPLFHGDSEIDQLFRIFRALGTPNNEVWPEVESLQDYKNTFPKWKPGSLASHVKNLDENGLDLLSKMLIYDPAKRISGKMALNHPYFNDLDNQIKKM
T3 sequence (P14635 whole entry partner): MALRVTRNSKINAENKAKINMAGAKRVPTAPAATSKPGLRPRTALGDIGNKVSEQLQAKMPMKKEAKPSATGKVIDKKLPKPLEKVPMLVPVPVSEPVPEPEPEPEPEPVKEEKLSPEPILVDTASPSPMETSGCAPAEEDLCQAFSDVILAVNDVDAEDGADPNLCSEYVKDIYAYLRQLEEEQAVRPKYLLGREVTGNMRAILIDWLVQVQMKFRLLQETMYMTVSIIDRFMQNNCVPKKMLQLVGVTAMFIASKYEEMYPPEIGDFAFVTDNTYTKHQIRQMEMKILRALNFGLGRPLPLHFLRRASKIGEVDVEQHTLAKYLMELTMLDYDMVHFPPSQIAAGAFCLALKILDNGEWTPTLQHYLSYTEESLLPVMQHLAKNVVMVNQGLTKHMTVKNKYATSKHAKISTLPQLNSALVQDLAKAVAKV

IC50 (c-Src kinase)	IC50 (A375 malignant melanoma)	IC50 (Aurora-A)	IC50 (CDK1)	IC50 (HCT-116 colon carcinoma)	Compound	Tumor volume ([1]; Day 1)	Tumor volume ([1]; Day 4)	Tumor volume ([1]; Day 8)	Tumor volume ([1]; Day 11)	Tumor volume ([1]; Day 14)
8.85 nM	101 nM	356 nM	0.8 nM	48.7 nM	CCNCc1cncc(-c2cnc3[nH]nc(-c4nc5cc(OC)ccc5[nH]4)c3c2)c1 [Cpd 101, ethyl-{5-[3-(5-methoxy-1H-benzoimidazol-2-yl)-1H-pyrazolo[3,4-b]pyridin-5-yl]-pyridin-3-ylmethyl}-amine]	95.4 mm^3	128 mm^3	354.1 mm^3	632.3 mm^3	988.7 mm^3
31.2 nM	47.1 nM	~1000 nM	0.9 to 1.3 nM	55.5 nM	CNCc1cncc(-c2cnc3[nH]nc(-c4nc5cc(OC(F)(F)F)ccc5[nH]4)c3c2)c1 [Cpd 96, methyl-{5-[3-(5-trifluoromethoxy-1H-benzoimidazol-2-yl)-1H-pyrazolo[3,4-b]pyridin-5-yl]-pyridin-3-ylmethyl}-amine]	95.4 mm^3	68.3 mm^3			

From patent publication US7541367B2, “3-benzoimidazolyl-pyrazolopyridines useful in treating kinase disorders” (Janssen Pharmaceutica, N.V., priority 2005, dated 2009)
